{"source": "paper PMC5464911", "about": "“SEL120-34A is a novel CDK8 inhibitor active in AML cells with high levels of serine phosphorylation of STAT1 and STAT5 transactivation domains” (Oncotarget, 2017)", "key": {"[1]": {"biological_target": "CDK8/CycC (Homo sapiens, UniProt P49336)", "sequence (P49336 whole entry)": "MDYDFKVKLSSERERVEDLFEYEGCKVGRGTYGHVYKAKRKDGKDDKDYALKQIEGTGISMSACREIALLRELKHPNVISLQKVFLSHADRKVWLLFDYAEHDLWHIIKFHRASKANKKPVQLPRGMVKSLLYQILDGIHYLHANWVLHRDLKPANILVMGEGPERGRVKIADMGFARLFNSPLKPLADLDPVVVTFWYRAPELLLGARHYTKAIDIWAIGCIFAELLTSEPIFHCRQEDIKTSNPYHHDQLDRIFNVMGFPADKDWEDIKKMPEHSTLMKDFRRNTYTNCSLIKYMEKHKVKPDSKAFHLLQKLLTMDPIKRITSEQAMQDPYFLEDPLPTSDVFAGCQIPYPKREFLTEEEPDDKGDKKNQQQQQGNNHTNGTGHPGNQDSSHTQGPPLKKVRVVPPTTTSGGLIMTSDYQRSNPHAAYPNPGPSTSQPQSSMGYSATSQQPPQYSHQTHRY", "sequence (P24863 whole entry partner)": "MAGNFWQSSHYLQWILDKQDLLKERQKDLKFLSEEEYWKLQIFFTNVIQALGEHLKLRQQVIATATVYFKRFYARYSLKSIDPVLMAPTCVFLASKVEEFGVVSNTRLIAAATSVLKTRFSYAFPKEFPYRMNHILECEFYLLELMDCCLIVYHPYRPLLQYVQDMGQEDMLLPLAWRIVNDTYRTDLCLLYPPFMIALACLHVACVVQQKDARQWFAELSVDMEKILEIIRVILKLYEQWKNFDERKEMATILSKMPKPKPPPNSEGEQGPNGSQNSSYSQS", "assay": "Radiometric protein kinase assay (PanQinase, ProQinase)"}, "[2]": {"system": "KG-1 tumors", "assay": "KG-1 AML xenograft", "assay_type": "in vivo, SCID mice", "protocol": "Figure 9 SEL120-34A inhibits growth of AML tumors in a dose- dependent manner (A) Volume kinetic of KG-1 tumors and (B) MV4-11 tumors grown subcutaneously in SCID mice, treated orally with vehicle (water) or indicated doses of SEL120-34A once every day. Changes in animals’ body weights are shown in the inset; n=8, SD is shown. (C) Levels of total STAT1, STAT3 and STAT5 and phosphorylated […], Y701, STAT3 S727, Y705, STAT5 726, Y694 were analyzed in KG-1 tumors from control (vehicle) and SEL120-34A treated animals at day 23. (D) Levels of total on STAT5 and phosphorylated STAT5 S726, Y694, MCL-1, PARP and Cleaved PARP, total RNAPII and phosphorylated RNAPII CTD S2 were analyzed in MV4-11 tumors from control (vehicle) and SEL120-34A treated animals at day 17.\nAll animals were handled in strict accordance with good animal practice as defined by the relevant national and local animal welfare bodies. Animals, SCID/beige C.B17 female mice were provided by Harlan Laboratories or Charles River Laboratories, and were maintained in pathogen free conditions.\nMice were inoculated subcutaneously (sc) above the groin on the right hind limb with 4×10^6 MV-4-11 or KG-1 leukemia cells, 5×10^6 Colo-205 CRC cells in a 0.1 ml mixture (3:1, v:v) of PBS and Matrigel (BD Biosciences, Growth Factor Reduced, Phenol Red-free; #356231). Once tumors reached a mean volume of approximately 100 mm^3 for tumor growth assessment or 250mm^3 for pharmacodynamics assessment, the mice were then randomly divided into uniform groups followed by compound or vehicle administration. Prior to use, the test compound was dissolved freshly in water at indicated doses and administered per os (PO) using cannula in a volume of 10 μl per 1 g of body weight. After the last administration, mice were subjected to anesthesia for blood collection, and sacrificed for tumor collection."}, "[3]": {"system": "RNAP II CTD S2 and S5", "assay": "RNAP II CTD phosphorylation in HCT-116 cells (WB)", "assay_type": "cell-based", "details": "SEL120-34A up to 2.5 μM", "protocol": "0,1% SDS; 20 mM β-glicerol phosphate; 5 mM NaF; cat. # sc835), α-STAT5-pS726 (1:1000; Abcam, cat. # 1 mM Na3VO4) supplemented with protease inhibitors ab128896), α-STAT5-pY694 (1:1000; Cell Signaling, (Santa Cruz Biotechnology). Tumor samples were cat. #C11C5), α-tubulin (1:4000; Sigma, cat. # T5192) homogenized in 15 sec intervals and kept on ice between and β-actin (1:4000, Sigma cat. # A2066) or GAPDH homogenization cycles. Protein concentration in lysates (1:20000; Sigma, cat. # G9545) was measured by the Bradford assay and adjusted to achieve the same final concentration in each well (20-30 mRNA extraction from xenograft tissue μg protein/well). […] A scoop Unless indicated otherwise, membranes were blocked of a tumor (~25mg) was homogenized with a pestle for 45 min with 2% fat-free dried milk (Rovema, Poland) under liquid nitrogen and immediately processed in Tris-buffered saline (TBS) + 0.05% Tween (TBST), according to the RNeasy Mini Kit protocol (Qiagen). incubated overnight at 4°C with primary antibodies diluted The RNA concentration was measured by a NanoDrop into 2% milk in TBST and washed four times for 10 min spectrophotometer and stored at -80°C for downstream with TBST. […]\nwith the activities of CDK9 in cells. […] Protein levels of RNAP II CTD pS2, pS5, cMYC and GAPDH were measured by WB."}, "[4]": {"system": "Oci-AML5", "assay": "Extended viability test (AlamarBlue)", "assay_type": "cell-based", "details": "Homo sapiens, OCI-AML-5; extended viability assay"}}, "note": "Like-named read-outs stand apart in the source and are kept apart here."}
{"smiles": "Cc1c(Br)c(Br)c2c3c1nc(N1CCNCC1)n3CCC2", "note": "[SEL120-34A]", "values": [{"measurement": "IC50", "setting": "[1]", "result": 0.0044, "unit": "µM"}, {"measurement": "remaining activity at 1 µM", "setting": "[1]; read-out: % remaining activity @1μM CDK8/CycC Mean", "result": 2, "unit": "%"}, {"measurement": "remaining activity at 1 µM", "setting": "[1]; read-out: % remaining activity @1μM CDK8/CycC repeat 1", "result": 3, "unit": "%"}, {"measurement": "remaining activity at 1 µM", "setting": "[1]; read-out: % remaining activity @1μM CDK8/CycC repeat 2", "result": 1, "unit": "%"}, {"measurement": "body weight", "setting": "[2]; KG-1 xenograft, oral once every day", "result": "without appreciable loss in body weight"}, {"measurement": "STAT1 S726 in KG-1 tumors", "setting": "[2]; oral once a day, day 23", "result": "unaffected"}, {"measurement": "STAT5 S726 in KG-1 tumors", "setting": "[2]; oral once a day, day 23", "result": "dose-dependent inhibition"}, {"measurement": "growth of KG-1-derived tumors", "setting": "[2]; oral, once every day", "result": "completely arrested growth"}, {"measurement": "RNAP II CTD phosphorylation at S2 and S5", "setting": "[3]", "result": "not affected"}, {"measurement": "GI50", "setting": "[4]", "result": 0.03, "unit": "µM"}]}
